{"source": "patent US20140249097A1", "about": "“Inhibition of HIF-1 activation for Anti-Tumor and Anti-Inflammatory responses” (priority 2010, published 2014)", "key": {"tumor vasculature": {"system": "tumor vasculature", "experiment": "Fluorescent staining of tumor vasculature in orthotopic 4T1ODD-luc tumors", "format": "in vivo, mice", "description": "(§1) Five mice from a doxorubicin-treated group or a control group that received saline were sacrificed on days 0, 1, 4, 7 and 16. The hypoxia marker pimonidazole (70 mg/kg i.p., NPI, Raleigh, N.C., United States of America) and the perfusion marker dye Hoechst 33342 (1 mg/mouse i.v., Sigma-Aldrich) were administered as previously described (Cao et al., 2005). Upon excision, tumors were snap-frozen in liquid nitrogen, stored at −80° C., and cut into 10 μm frozen sections. HIF-1α fluorescent staining was performed with anti-HIF-1α antibody (Novus). Direct pimonidazole labeling was performed using Hypoxyprobe (mouse monoclonal IgG1, NPI, Raleigh, N.C., United States of America) and Zenon Alexa Fluor 555 mouse IgG labeling kit (Invitrogen). Entire tumor sections were imaged by scanning fluorescent microscopy. Individual scanned images were then reconstructed into one composite image of the entire section by Metamorph. Tumor vasculature was stained by fluorescein-labeled Griffonia simplicifolia lectin I (isolectin B4) (1:200 dilution, Vector Laboratories, Burlingame, Calif., United States of America) as previously described (Cao et al., 2007). Eight random fields (10×) per frozen section were analyzed to determine the mean tumor vascular fraction as the percentage of vessel area in total tumor area in each field. Cell proliferation was determined by immunostaining with a rabbit polyclonal anti-Ki67 antibody (ab15580, 1:100 dilution, Abcam, Cambridge, Massachusettes, United States of America) and an Alexa 594-conjugated goat anti-rabbit IgG antibody (1:300 dilution, Invitrogen). Tumor activated macrophages were stained with rat anti-mouse CD68 antibody (1:100 dilution, Serotec, Raleigh, N.C., United States of America) and an Alexa 488-conjugated anti-rat IgG antibody (1:200 dilution, Invitrogen)."}, "[1]": {"system": "tumor-activated macrophages", "experiment": "CD68 staining of tumor-activated macrophages in orthotopic 4T1ODD-luc tumors", "format": "in vivo, mice", "conditions": "doxorubicin-treated vs saline-treated tumors", "description": "as §1, with “Tumor vasculature was stained by fluorescein-labeled Griffonia simplicifolia lectin I (isolectin B4) (1:200 dilution, Vector Laboratories, Burlingame, Calif., United States of America) as previously described (Cao et al., 2007).” left out, “Tumor activated macrophages were stained with rat anti-mouse CD68 antibody (1:100 dilution, Serotec, Raleigh, N.C., United States of America) and an Alexa 488-conjugated anti-rat IgG antibody (1:200 dilution, Invitrogen).” left out"}, "VEGF": {"system": "VEGF", "experiment": "Mouse VEGF ELISA of 4T1ODD-luc conditioned medium", "format": "cell-based", "conditions": "normoxic, doxorubicin 0.1, 1, and 10 μg/ml", "description": "1×10^5 4 T1ODD-luc cells per well of 12-well plate were cultured with 1 ml cell culture medium overnight. The cells were treated with 0.1, 1, or 10 μg/ml of doxorubicin or without doxorubicin for 24, 48, and 72 hours. Secreted mouse VEGF in the conditioned medium at each time point was quantified by mouse VEGF ELISA kit (R & D Systems, Minneapolis, Minn., United States of America) and normalized to the number of living cells."}, "HIF-1α [2]": {"system": "HIF-1α", "experiment": "Bioluminescent imaging of orthotopic 4T1ODD-luc tumors in nude mice", "format": "in vivo", "description": "(§2) HIF-1α ODD-luciferase reporter activity was detected and quantified by the Xenogen IVIS bioluminescence imaging system (Xenogen Corporation, Alameda, Calif., United States of America) as previously described (Li et al., 2007). For in vitro imaging of cultured cells, 1×10^5 4 T1ODD-luc cells per well of 12-well plates were cultured with 2 ml culture medium for 24 hours. Then the cells were treated with doxorubicin hydrochloride (0.1, 1, or 10 μg/ml, Bedford Laboratories, Bedford, Ohio, United States of America) or an equal volume of control vehicle for 3 days under normoxic conditions (21% O2, 5% CO2). […] The activity of HIF-1α luciferase reporter was quantified daily. In animal studies, the bioluminescence of each tumor was detected on day 0 (before doxorubicin treatment) and on post-treatment days 1-7, 10, 13, and 16. During each imaging session mice were anesthetized with inhaled isoflurane and imaged 10 minutes after intraperitoneal (i.p.) injection of luciferin (150 mg/kg). Tumor bioluminescence intensity was normalized to the tumor volume at each time point.\n5×10^6 4 T1ODD-luc tumor cells in 200 μl PBS were injected orthotopically in the right thoracic mammary fat pad of female NCr/nu nude mice (Moeller et al., 2004). Tumor volumes were calculated as follows: volume=(length×width^2×π)/6. When tumor size reached 7 mm in diameter, animals were randomized into two groups: the control mice were injected with 100 μl saline and the treated mice were injected once with the maximal tolerated dose (MTD) of doxorubicin (10 mg/kg) via tail vein (Vanhoefer et al., 1997). Tumor volume and luciferase reporter activity in vivo were measured on days 0, 1-7, 10, 13 and 16."}, "hypoxic tumor fraction": {"system": "hypoxic tumor fraction", "experiment": "Pimonidazole staining of tumor hypoxia in orthotopic 4T1ODD-luc tumors", "format": "in vivo, mice", "conditions": "doxorubicin-treated vs control tumors", "description": "as §1, with “Tumor vasculature was stained by fluorescein-labeled Griffonia simplicifolia lectin I (isolectin B4) (1:200 dilution, Vector Laboratories, Burlingame, Calif., United States of America) as previously described (Cao et al., 2007).” left out, “Tumor activated macrophages were stained with rat anti-mouse CD68 antibody (1:100 dilution, Serotec, Raleigh, N.C., United States of America) and an Alexa 488-conjugated anti-rat IgG antibody (1:200 dilution, Invitrogen).” left out"}, "HIF-1α [3]": {"system": "HIF-1α", "experiment": "HIF-1α ODD-luciferase reporter in normoxic 4T1ODD-luc cells", "format": "cell-based, mouse", "description": "as §2"}, "nitric oxide": {"system": "nitric oxide", "experiment": "Flow cytometry of intracellular nitric oxide (DAF-FM) in 4T1ODD-luc cells", "format": "cell-based, mouse", "conditions": "1 μg/ml and 5 μg/ml doxorubicin, 48 hours, vs control", "description": "To detect intracellular nitric oxide levels, 1×10^6 4 T1ODD-luc cells were plated per 10-cm cell culture dish with 8 ml of cell culture medium. Doxorubicin (1 μg/ml and 5 μg/ml) or an equal volume of control solvent was added into the cell culture medium the next day and treatment continued for 48 hours. […] Equal amounts of solvent were added for the control group. To quantify intracellular nitric oxide, a single cell suspension was made after trypsinization. 2 ml of 5 uM nitric oxide-specific probe DAF-FM diacetate (4-amino-5-methylamino-2′,7′-difluorofluorescein diacetate) (Invitrogen) were incubated with each cell sample at room temperature in darkness for 30 minutes. The cells were washed with PBS and centrifuged to remove the excess DAF-FM diacetate probe. The cells were resuspended into 500 ul of phenol-free DMEM and incubated for another 20 minutes for complete intracellular deacetylation of the probe. The mean fluorescence intensity of the deacetylated DAF-FM reacted with nitric oxide was quantified by FACSCalibur flow cytometer in FITC channel (Becton Dickinson, Franklin Lakes, N.J., United States of America)."}, "STAT1": {"system": "STAT1", "experiment": "Western blotting of STAT1 and phospho-STAT1 in 4T1ODD-luc cells", "format": "cell-based, mouse", "conditions": "doxorubicin 1 μg/ml", "description": "(§3) Cell nuclear proteins were extracted using the NucBuster protein extraction kit (Novagen, Gibbstown, N.J., United States of America). Total cell lysates or cell nuclear extractions were quantified using a protein assay reagent (Bio-Rad). Equal amounts of protein sample were separated by Bis-HCl gel (Bio-Rad) and transferred to a […] Immun-Blot PVDF membrane (Bio-Rad)."}, "HIF-1α [4]": {"system": "HIF-1α", "experiment": "Immunohistochemical staining of HIF-1α in orthotopic 4T1ODD-luc tumors", "format": "in vivo, mice", "conditions": "MTD doxorubicin vs saline, post-treatment days 1, 4, and 7", "description": "as §1, with “Tumor vasculature was stained by fluorescein-labeled Griffonia simplicifolia lectin I (isolectin B4) (1:200 dilution, Vector Laboratories, Burlingame, Calif., United States of America) as previously described (Cao et al., 2007).” left out, “Tumor activated macrophages were stained with rat anti-mouse CD68 antibody (1:100 dilution, Serotec, Raleigh, N.C., United States of America) and an Alexa 488-conjugated anti-rat IgG antibody (1:200 dilution, Invitrogen).” left out"}, "HIF-1α [5]": {"system": "HIF-1α", "experiment": "Western blotting of HIF-1α in MCF-7 cells", "format": "cell-based, human", "conditions": "normoxic MCF-7 cells", "description": "as §3"}, "perfused tumor fraction": {"system": "perfused tumor fraction", "experiment": "Hoechst 33342 labeling of tumor perfusion in orthotopic 4T1ODD-luc tumors", "format": "in vivo, mice", "conditions": "doxorubicin-treated vs control tumors", "description": "as §1, with “Tumor vasculature was stained by fluorescein-labeled Griffonia simplicifolia lectin I (isolectin B4) (1:200 dilution, Vector Laboratories, Burlingame, Calif., United States of America) as previously described (Cao et al., 2007).” left out, “Tumor activated macrophages were stained with rat anti-mouse CD68 antibody (1:100 dilution, Serotec, Raleigh, N.C., United States of America) and an Alexa 488-conjugated anti-rat IgG antibody (1:200 dilution, Invitrogen).” left out"}, "iNOS [6]": {"system": "iNOS", "experiment": "Western blotting of iNOS in 4T1ODD-luc cells", "format": "cell-based, mouse", "description": "as §3"}, "iNOS [7]": {"system": "iNOS", "experiment": "Real-time PCR of iNOS mRNA in 4T1ODD-luc cells", "format": "cell-based, mouse", "conditions": "doxorubicin vs control treatment", "description": "Total RNA was prepared using the miRVana extraction kit (Applied Biosystems, Austin, Tex., United States of America). 1 μg of total RNA was reverse transcribed into cDNA using the iScript cDNA synthesis kit (BioRad, Hercules, Calif., United States of America). Real-time PCR was performed on an ABI7900HT Fast Real-Time PCR System using Power SYBRGreen PCR Mix (Applied Biosystems). PCR products were verified by melting curves. The threshold cycle (CT) values for each gene were normalized to expression levels of β-actin. The primers used were as follows: mouse iNOS, forward 5′-[…]-3′ (SEQ ID NO: 22); reverse 5′-[…]-3′ (SEQ ID NO: 23); the same β-actin primers were used for both human and mouse cell lines, forward 5′-[…]-3′ (SEQ ID NO: 24); and reverse 5′-[…]-3′ (SEQ ID NO: 25)."}, "HIF-1α [8]": {"system": "HIF-1α", "experiment": "Western blotting of HIF-1α in 4T1ODD-luc cells", "format": "cell-based, mouse", "conditions": "normoxic, total cell lysate and nuclear extraction, 48 hours post-treatment", "description": "as §3"}}, "note": "Counter-ions that a name gives are not always drawn.", "data": [{"compound": "COc1cccc2c1C(=O)c1c(O)c3c(c(O)c1C2=O)C[C@@](O)(C(=O)CO)C[C@@H]3O[C@H]1C[C@H](N)[C@H](O)[C@H](C)O1", "note": "[doxorubicin, doxorubicin hydrochloride]", "values": [{"measurement": "relative tumor vascular fraction", "setting": "tumor vasculature; doxorubicin vs control, first 24 hours", "result": "significant decrease in tumor vascular fraction"}, {"measurement": "tumor vessels by fluorescent staining", "setting": "tumor vasculature; doxorubicin vs saline, day 4 post-treatment", "result": "more tumor vessels"}, {"measurement": "relative tumor vascular fraction", "setting": "tumor vasculature; doxorubicin vs saline, day 16", "result": "still significantly higher compared to the saline-treated tumors"}, {"measurement": "mean relative tumor vascular fraction", "setting": "tumor vasculature; doxorubicin-treated tumors, post-treatment day 4 (peak)", "result": "even higher than before chemotherapy treatment"}, {"measurement": "fraction of tumor-activated macrophages (CD68)", "setting": "[1]", "result": "no significant difference"}, {"measurement": "secreted VEGF level", "setting": "VEGF", "result": "significantly elevated the secreted VEGF level"}, {"measurement": "HIF-1α reporter activity in tumors on day 16", "setting": "HIF-1α [2]; doxorubicin 10 mg/kg i.v. once vs saline, day 16", "result": "fell to a level similar to that in the control tumors"}, {"measurement": "HIF-1α reporter activity in tumors", "setting": "HIF-1α [2]; doxorubicin 10 mg/kg i.v. once vs saline, from 3 days post-treatment", "result": "significantly elevated the HIF-1α reporter activity"}, {"measurement": "peak in HIF-1 activation after doxorubicin treatment", "setting": "HIF-1α [2]; in vivo", "result": "3 to 5", "unit": "days"}, {"measurement": "temporal course of doxorubicin-induced normoxic HIF-1α accumulation", "setting": "HIF-1α [2]; mouse, in vivo", "result": "3-5 days post-treatment"}, {"measurement": "hypoxic tumor fraction (pimonidazole staining)", "setting": "hypoxic tumor fraction", "result": "no significant difference"}, {"measurement": "HIF-1α reporter activity, comparison of concentrations", "setting": "HIF-1α [3]; 1 μg/ml doxorubicin", "result": "most potent upregulation"}, {"measurement": "HIF-1α reporter activity", "setting": "HIF-1α [3]; doxorubicin 0.1, 1, or 10 μg/ml, 48 hours post-treatment", "result": "significant increase in HIF-1α reporter activity"}, {"measurement": "intracellular NO levels", "setting": "nitric oxide", "result": "increased intracellular NO levels"}, {"measurement": "STAT1 expression", "setting": "STAT1", "result": "upregulated the expression of STAT1"}, {"measurement": "STAT1 phosphorylation (Tyr701 and Ser727)", "setting": "STAT1", "result": "promoted the activation of STAT1"}, {"measurement": "tumor HIF-1α positive fraction", "setting": "HIF-1α [4]", "result": "significantly increased the HIF-1α fraction"}, {"measurement": "HIF-1α protein", "setting": "HIF-1α [5]", "result": "led to normoxic HIF-1α accumulation"}, {"measurement": "perfused tumor fraction (Hoechst 33342 labeling)", "setting": "perfused tumor fraction", "result": "no significant difference"}, {"measurement": "iNOS expression", "setting": "iNOS [6]; doxorubicin 1 μg/ml, normoxic conditions", "result": "stimulated iNOS expression"}, {"measurement": "iNOS expression", "setting": "iNOS [6]; doxorubicin alone, first 24 hours post-treatment", "result": "initial decrease in iNOS expression"}, {"measurement": "iNOS expression", "setting": "iNOS [6]; doxorubicin, 48 hours post-treatment", "result": "increase in iNOS expression"}, {"measurement": "iNOS mRNA level", "setting": "iNOS [7]", "result": "significantly enhanced iNOS transcription"}, {"measurement": "HIF-1α protein expression", "setting": "HIF-1α [8]", "result": "enhanced"}]}]}
